# Experimental data from US11739070B2, “C5A receptor modulators” (IDORSIA PHARMACEUTICALS LTD, priority 2018, dated 2023).
# Target: T1, C5AR1 (Homo sapiens, UniProt P21730)
# T1 construct: host or cells: CHO-K1
# T1 sequence (P21730 1-350): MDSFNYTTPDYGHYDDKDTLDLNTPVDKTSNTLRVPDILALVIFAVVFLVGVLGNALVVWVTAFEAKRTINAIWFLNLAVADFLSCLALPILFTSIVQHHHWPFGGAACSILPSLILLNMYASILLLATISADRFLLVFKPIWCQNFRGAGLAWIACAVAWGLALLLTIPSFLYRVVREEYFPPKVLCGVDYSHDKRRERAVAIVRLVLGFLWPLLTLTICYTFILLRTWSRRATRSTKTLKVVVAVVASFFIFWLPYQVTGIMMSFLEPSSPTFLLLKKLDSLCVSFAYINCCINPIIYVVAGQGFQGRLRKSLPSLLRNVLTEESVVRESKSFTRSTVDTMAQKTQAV
# Test: hC5a DISCO IC50 assay (PathHunter beta-arrestin, antagonist mode)
# Type: cell-based
# Conditions: CHO-K1 C5AR1 beta-arrestin cell line; antagonist vs 1-10 nM C5a agonist; geometric mean values; read-out: C5aR IC50
# How it was run: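 Antagonist added first, then 1-10 nM C5a agonist; cells incubated 1.5 h at 37 °C. Beta-arrestin signal developed with PathHunter detection reagent, 45 min at RT. IC50 in nmol/l from serial antagonist dilutions, reported as geometric mean of several measurements.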
row,SMILES,IC50
1,"COc1cccc2c1n(Cc1ccccc1C(F)(F)F)c(=O)n2[C@@H]1CCN(c2c(F)cccc2CN2CCCCC2)C1 [Example 133, 1-[(R)-1-(2-Fluoro-6-piperidin-1-ylmethyl-phenyl)-pyrrolidin-3-yl]-4-methoxy-3-(2-trifluoromethyl-benzyl)-1,3-dihydro-benzoimidazol-2-one]",70 nM
2,"COc1cccc2c1n(Cc1ccccc1C(F)(F)F)c(=O)n2[C@@H]1CCN(c2c(F)cccc2CN2CCNCC2)C1 [Example 135, 1-[(R)-1-(2-Fluoro-6-piperazin-1-ylmethyl-phenyl)-pyrrolidin-3-yl]-4-methoxy-3-(2-trifluoromethyl-benzyl)-1,3-dihydro-benzoimidazol-2-one]",5760 nM
3,"COc1cccc2c1n(Cc1ccccc1C(F)(F)F)c(=O)n2[C@@H]1CCN(c2c(F)cccc2CN2CCC(N(C)C)CC2)C1 [Example 136, 1-{(R)-1-[2-(4-Dimethylamino-piperidin-1-ylmethyl)-6-fluoro-phenyl]-pyrrolidin-3-yl}-4-methoxy-3-(2-trifluoromethyl-benzyl)-1,3-dihydro-benzoimidazol-2-one]",1590 nM
4,"COc1cccc2c1n(Cc1ccccc1C(F)(F)F)c(=O)n2[C@@H]1CCN(c2c(F)cccc2CN2CCC(OC)CC2)C1 [Example 137, 1-{(R)-1-[2-Fluoro-6-(4-methoxy-piperidin-1-ylmethyl)-phenyl]-pyrrolidin-3-yl}-4-methoxy-3-(2-trifluoromethyl-benzyl)-1,3-dihydro-benzoimidazol-2-one]",133 nM
5,"COc1cccc2c1n(Cc1ccccc1C(F)(F)F)c(=O)n2[C@@H]1CCN(c2c(F)cccc2CN2CCC(OC)C2)C1 (stereo partly drawn) [Example 138, 1-{(R)-1-[2-Fluoro-6-(3-methoxy-pyrrolidin-1-ylmethyl)-phenyl]-pyrrolidin-3-yl}-4-methoxy-3-(2-trifluoromethyl-benzyl)-1,3-dihydro-benzoimidazol-2-one]",156 nM
6,"COCCN(C)Cc1cccc(F)c1N1CC[C@@H](n2c(=O)n(Cc3ccccc3C(F)(F)F)c3c(OC)cccc32)C1 [Example 139, 1-[(R)-1-(2-Fluoro-6-{[(2-methoxy-ethyl)-methyl-amino]-methyl}-phenyl)-pyrrolidin-3-yl]-4-methoxy-3-(2-trifluoromethyl-benzyl)-1,3-dihydro-benzoimidazol-2-one]",227 nM
7,"COc1cccc2c1n(Cc1ccccc1C(F)(F)F)c(=O)n2[C@@H]1CCN(c2c(F)cccc2CN(CCO)CCO)C1 [Example 141, 1-[(R)-1-(2-{[Bis-(2-hydroxy-ethyl)-amino]-methyl}-6-fluoro-phenyl)-pyrrolidin-3-yl]-4-methoxy-3-(2-trifluoromethyl-benzyl)-1,3-dihydro-benzoimidazol-2-one]",2130 nM
8,"COCC(C)NCc1cccc(F)c1N1CC[C@@H](n2c(=O)n(Cc3ccccc3C(F)(F)F)c3c(OC)cccc32)C1 (stereo partly drawn) [Example 142, 1-((R)-1-{2-Fluoro-6-[(2-methoxy-1-methyl-ethylamino)-methyl]-phenyl}-pyrrolidin-3-yl)-4-methoxy-3-(2-trifluoromethyl-benzyl)-1,3-dihydro-benzoimidazol-2-one]",108 nM
9,"COc1cccc2c1n(Cc1ccccc1C(F)(F)F)c(=O)n2C1CCN(c2c(F)cccc2C=O)C(C)C1 (centres unmarked) [Example 145, 3-Fluoro-2-{4-[4-methoxy-2-oxo-3-(2-trifluoromethyl-benzyl)-2,3-dihydro-benzoimidazol-1-yl]-2-methyl-piperidin-1-yl}-benzaldehyde]",16 nM
10,"COc1cccc2c1n(Cc1ccccc1C(F)(F)F)c(=O)n2C1CCN(C(=O)OC(C)(C)C)CC1C (centres unmarked) [Example 146, 4-[4-Methoxy-2-oxo-3-(2-trifluoromethyl-benzyl)-2,3-dihydro-benzoimidazol-1-yl]-3-methyl-piperidine-1-carboxylic acid tert-butyl ester]",201 nM
11,"COc1cccc2c1n(Cc1ccccc1C(F)(F)F)c(=O)n2[C@@H]1CCN(c2c(F)cccc2C(C)OC)C1 (stereo partly drawn) [Example 148, 1-{(R)-1-[2-Fluoro-6-(1-methoxy-ethyl)-phenyl]-pyrrolidin-3-yl}-4-methoxy-3-(2-trifluoromethyl-benzyl)-1,3-dihydro-benzoimidazol-2-one]",28 nM
12,"Cc1cccc(F)c1N1CC[C@@H](n2c(=O)n(Cc3ccccc3C(F)(F)F)c3c(OCCO)cccc32)C1 [Example 150, 1-[(R)-1-(2-Fluoro-6-methyl-phenyl)-pyrrolidin-3-yl]-4-(2-hydroxy-ethoxy)-3-(2-trifluoromethyl-benzyl)-1,3-dihydro-benzoimidazol-2-one]",11 nM
13,"COc1cccc2c1n(Cc1ccccc1C(F)(F)F)c(=O)n2[C@@H]1CCN(c2c(F)cccc2[N+](=O)[O-])C1 [Example 154, 1-[(R)-1-(2-Fluoro-6-nitro-phenyl)-pyrrolidin-3-yl]-4-methoxy-3-(2-trifluoromethyl-benzyl)-1,3-dihydro-benzoimidazol-2-one]",23 nM
14,"COc1cccc2c1n(Cc1ccccc1C(F)(F)F)c(=O)n2[C@@H]1CCN(c2c(N)cccc2F)C1 [Example 155, 1-[(R)-1-(2-Amino-6-fluoro-phenyl)-pyrrolidin-3-yl]-4-methoxy-3-(2-trifluoromethyl-benzyl)-1,3-dihydro-benzoimidazol-2-one]",15 nM
15,"COc1cccc2c1n(Cc1ccccc1C(F)(F)F)c(=O)n2[C@@H]1CCN(c2c(F)cccc2Br)C1 [Example 156, 1-[(R)-1-(2-Bromo-6-fluoro-phenyl)-pyrrolidin-3-yl]-4-methoxy-3-(2-trifluoromethyl-benzyl)-1,3-dihydro-benzoimidazol-2-one]",21 nM

# More lines, in order of falling IC50, values ahead:
row,IC50,SMILES
1,2260 nM,"COc1cccc2c1n(Cc1ccccc1C(F)(F)F)c(=O)n2[C@@H]1CCN(c2c(F)cccc2CN2CCC(O)CC2)C1 [Example 134, 1-{(R)-1-[2-Fluoro-6-(4-hydroxy-piperidin-1-ylmethyl)-phenyl]-pyrrolidin-3-yl}-4-methoxy-3-(2-trifluoromethyl-benzyl)-1,3-dihydro-benzoimidazol-2-one]"
2,1030 nM,"CCN(CCO)Cc1cccc(F)c1N1CC[C@@H](n2c(=O)n(Cc3ccccc3C(F)(F)F)c3c(OC)cccc32)C1 [Example 140, 1-[(R)-1-(2-{[Ethyl-(2-hydroxy-ethyl)-amino]-methyl}-6-fluoro-phenyl)-pyrrolidin-3-yl]-4-methoxy-3-(2-trifluoromethyl-benzyl)-1,3-dihydro-benzoimidazol-2-one]"
3,683 nM,"COc1cccc2c1n(Cc1ccccc1C(F)(F)F)c(=O)n2[C@@H]1CCN(c2c(Cl)cnnc2Cl)C1 [Example 158, 1-[(R)-1-(3,5-Dichloro-pyridazin-4-yl)-pyrrolidin-3-yl]-4-methoxy-3-(2-trifluoromethyl-benzyl)-1,3-dihydro-benzoimidazol-2-one]"
4,630 nM,"COc1cccc2c1n(Cc1ccccc1C(F)(F)F)c(=O)n2[C@@H]1CCN(c2nncc(Cl)c2Cl)C1 [Example 157, 1-[(R)-1-(4,5-Dichloro-pyridazin-3-yl)-pyrrolidin-3-yl]-4-methoxy-3-(2-trifluoromethyl-benzyl)-1,3-dihydro-benzoimidazol-2-one]"
5,312 nM,"COc1cccc2c1n(Cc1ccccc1C(F)(F)F)c(=O)n2C1CCN(C(=O)OC(C)(C)C)C(C)C1 (centres unmarked) [Example 144, 4-[4-Methoxy-2-oxo-3-(2-trifluoromethyl-benzyl)-2,3-dihydro-benzoimidazol-1-yl]-2-methyl-piperidine-1-carboxylic acid tert-butyl ester]"
6,215 nM,"COc1cccc2c1n(Cc1cncnc1C(F)(F)F)c(=O)n2[C@@H]1CCN(c2c(F)cccc2C#N)C1 [Example 153, 3-Fluoro-2-{(R)-3-[4-methoxy-2-oxo-3-(4-trifluoromethyl-pyrimidin-5-ylmethyl)-2,3-dihydro-benzoimidazol-1-yl]-pyrrolidin-1-yl}-benzonitrile]"
7,108 nM,"COc1cccc2c1n(Cc1ccccc1C(F)(F)F)c(=O)n2[C@@H]1CCN(c2c(F)cccc2CN2CC(OC)C2)C1 [Example 143, 1-{(R)-1-[2-Fluoro-6-(3-methoxy-azetidin-1-ylmethyl)-phenyl]-pyrrolidin-3-yl}-4-methoxy-3-(2-trifluoromethyl-benzyl)-1,3-dihydro-benzoimidazol-2-one]"
8,38 nM,"Cc1cccc(F)c1N1CC[C@@H](n2c(=O)n(Cc3ccccc3C(F)(F)F)c3c(OCC(O)CO)cccc32)C1 (stereo partly drawn) [Example 152, 4-(2,3-Dihydroxy-propoxy)-1-[(R)-1-(2-fluoro-6-methyl-phenyl)-pyrrolidin-3-yl]-3-(2-trifluoromethyl-benzyl)-1,3-dihydro-benzoimidazol-2-one]"
9,31 nM,"Cc1cccc(F)c1N1CC[C@@H](n2c(=O)n(Cc3ccccc3C(F)(F)F)c3c(OCC4COC(C)(C)O4)cccc32)C1 (stereo partly drawn) [Example 151, 4-(2,2-Dimethyl-[1,3]dioxolan-4-ylmethoxy)-1-[(R)-1-(2-fluoro-6-methyl-phenyl)-pyrrolidin-3-yl]-3-(2-trifluoromethyl-benzyl)-1,3-dihydro-benzoimidazol-2-one]"
10,20 nM,"COc1cccc2c1n(Cc1ccccc1C(F)(F)F)c(=O)n2C1CCN(c2c(C)cccc2F)CC1C (centres unmarked) [Example 147, 1-[1-(2-Fluoro-6-methyl-phenyl)-3-methyl-piperidin-4-yl]-4-methoxy-3-(2-trifluoromethyl-benzyl)-1,3-dihydro-benzoimidazol-2-one]"
11,14 nM,"Cc1cccc(F)c1N1CC[C@@H](n2c(=O)n(Cc3ccccc3C(F)(F)F)c3c(OC4COC4)cccc32)C1 [Example 149, 1-[(R)-1-(2-Fluoro-6-methyl-phenyl)-pyrrolidin-3-yl]-4-(oxetan-3-yloxy)-3-(2-trifluoromethyl-benzyl)-1,3-dihydro-benzoimidazol-2-one]"
